Laboratory results from the supplement of paper PMC5579334.

Tests used:
HS-PSS [1] = assay: drug sensitivity score (DSS, CellTox-Green cytotoxicity, 72 h) (DSS (dimensionless)); higher = more cytotoxic; extreme values may be limits of the assay
In short: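 For 72 h at 37 °C, MPNST cell lines and primary human Schwann cells were exposed in 384-well plates to five 10-fold compound dilutions. CellTox-Green, added before seeding at a final 1:1000 dilution, gave fluorescence from DNA released by disrupted cells. Signals were scaled to vehicle and positive-control wells, cultures failing plate quality control were left out, and four-parameter logistic fits were applied. Relative IC50 and drug sensitivity score were derived from the fits, with IC50 censored at the top concentration.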

HS-Sch-2 [2] = assay: % inhibition of CellTiter-Glo viability at highest tested concentration (72 h), relative to DMSO and benzethonium chloride controls; higher = more inhibition
In short: (§1)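 After seeding 750–1000 cells per well of MPNST cell lines or primary human Schwann cells into 384-well plates preprinted with each compound at five concentrations in 10-fold steps, plates were kept 72 h at 37 °C, 5% CO2. Viability was read as CellTiter-Glo ATP luminescence relative to vehicle and positive-control wells, with duplicates averaged where present. The data were fitted with four-parameter logistic models. Drug sensitivity score and relative IC50, censored at the top concentration, derive from the fits, and percent inhibition refers to the top concentration.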

YST-1 [3] = assay: as above
In short: as §1

HS-PSS [4] = assay: as above
In short: as §1

HS-Sch-2 [5] = assay: drug sensitivity score (DSS, CellTiter-Glo viability, 72 h) (DSS (dimensionless)); higher = more sensitive; extreme values may be limits of the assay
In short: as §1

YST-1 [6] = assay: as above
In short: as §1

HS-PSS [7] = assay: as above
In short: as §1

| Structure (SMILES) | drug sensitivity score (HS-PSS [1]) | % inhibition (HS-Sch-2 [2]) [%] | % inhibition (YST-1 [3]) [%] | % inhibition (HS-PSS [4]) [%] | drug sensitivity score (HS-Sch-2 [5]) | drug sensitivity score (YST-1 [6]) | drug sensitivity score (HS-PSS [7]) |
| --- | --- | --- | --- | --- | --- | --- | --- |
| Cc1cccc(-c2[nH]c(CNc3ccccc3F)nc2-c2ccc3ncnn3c2)n1 [TEW-7197] (max concentration tested 2500 nM) | 0 | 13.1 | -10.6 | 23.2 | 0.08 | 0 | 1.89 |
| O[C@H]1CC[C@H](Nc2ncc3nc(Nc4c(F)cc(F)cc4F)n([C@H]4CCOC4)c3n2)CC1 [Tanzisertib] (max concentration tested 10000 nM) | 0 | -2.81 | 11.6 | -0.16 | 0 | 1.56 | 0 |
| Cn1cc(-c2ccc3nnc(C(F)(F)c4ccc5ncccc5c4)n3n2)cn1 (max concentration tested 10000 nM) | 0 | 11.5 | 18.4 | 17.4 | 0.05 | 0.54 | 1.21 |
| CC(C)Nc1cc(-c2c[nH]c(C(=O)N[C@H](CO)c3cccc(Cl)c3)c2)c(Cl)cn1 [Ulixertinib] (max concentration tested 10000 nM) | 0 | 68.7 | 41.1 | 53 | 6.76 | 3.93 | 2.52 |
| Cn1cnc2c(F)c(Nc3ccc(Br)cc3F)c(C(=O)NOCCO)cc21 [Binimetinib] (max concentration tested 1000 nM) | 0 | 21.1 | 6.26 | 7.79 | 0.81 | 0 | 0 |
| C=CC(=O)N1CCC(Oc2cc3c(Nc4ccc(Cl)c(Cl)c4F)ncnc3cc2OC)CC1 [Poziotinib] (max concentration tested 1000 nM) | 0 | 3.19 | 12.9 | 6.52 | 0 | 0.25 | 0 |
| Cc1cc(C)c(CNC(=O)c2cc(-c3ccc(CN4CCOCC4)cc3)cc3c2cnn3C2CCCC2)c(=O)[nH]1 [EPZ-5687] (max concentration tested 10000 nM) | 0 | -5.4 | 1.37 | -1.01 | 0 | 0 | 0 |
| O=C(O)C(=O)O.[NH-][C@@H]1CCCC[C@H]1[NH-].[Pt+2] [Oxaliplatin] (max concentration tested 100000 nM) | 3.02 | 100 | 97.7 | 69.2 | 11.4 | 19.6 | 8.54 |
| CCN(CC)CCN(Cc1ccc(-c2ccc(C(F)(F)F)cc2)cc1)C(=O)Cn1c(SCc2ccc(F)cc2)nc(=O)c2c1CCC2 [Darapladib] (max concentration tested 1000 nM) | 3.71 | 33 | 19.5 | 53.3 | 2.38 | 1.09 | 3.85 |
| O=c1[nH]c(C2CCCN2)nc2c1oc1ccc(Cl)cc12 (stereo unspecified) (max concentration tested 10000 nM) | 0 | 19.3 | 63.8 | 33.3 | 2.7 | 6.83 | 2.86 |
| CNC(=O)c1c(F)cccc1Nc1nc(Nc2cc3c(cc2OC)CCN3C(=O)CN(C)C)nc2[nH]ccc12 (max concentration tested 2500 nM) | 1.53 | 11.8 | 66.3 | 59.1 | 0.22 | 11.8 | 13.9 |
| O=C(Nc1cccc(Nc2ncc(Br)c(NCCc3cnc[nH]3)n2)c1)N1CCCC1 [BX-912] (max concentration tested 10000 nM) | 0 | 78.4 | 67 | 44.8 | 4.94 | 8.47 | 3.51 |
| Cc1ccc(C(=O)Nc2ccc(Oc3cc4cnn(C)c4cc3-c3cn[nH]c3)c(F)c2)c(=O)n1-c1ccc(F)cc1 [Merestinib] (max concentration tested 1000 nM) | 0 | 31 | 25.2 | 46.7 | 1.13 | 1.74 | 3.07 |
| CCOc1cc2ncc(C#N)c(Nc3ccc(F)c(Cl)c3)c2cc1NC(=O)/C=C/CN(C)C [Pelitinib] (max concentration tested 2500 nM) | 1.05 | 89.6 | 47.9 | 73.9 | 11 | 4.87 | 12.8 |
| c1cn2cc(-c3ccc4cn[nH]c4c3)nc(Nc3ccc(N4CCOCC4)cc3)c2n1 [Entospletinib] (max concentration tested 5000 nM) | 0.89 | -16 | 12 | -4.13 | 0.89 | 0.45 | 0 |
| CC(C)[C@H](C(=O)Nc1ccc(C(=O)NO)cc1)c1ccccc1 [AR-42] (max concentration tested 10000 nM) | 5 | 101 | 100 | 88.1 | 10.9 | 17.8 | 10 |
| O=C(CCCCCCNC(=O)c1cnc(N(c2ccccc2)c2ccccc2)nc1)NO [Rocilinostat] (max concentration tested 10000 nM) | 0.39 | 81.2 | 89.5 | 58.4 | 6.66 | 9.5 | 3.58 |
| Cc1c(CN2CCN(C(=O)[C@H](C)O)CC2)sc2c(N3CCOCC3)nc(-c3cnc(N)nc3)nc12 [Apitolisib] (max concentration tested 10000 nM) | 0 | 71.5 | 86.9 | 64.5 | 9.07 | 18.3 | 8.39 |
